According to PMC4102788, “Linking off-target kinase pharmacology to the differential cellular effects observed among PARP inhibitors” (Oncotarget, 2014):
Entries after “also recorded” stand apart in the source; their conditions may differ.

Key:
PARP-1 = molecular target: PARP-1; parameters: method as in PMID 21948594, PMID 21336281; details: ChEMBL; cited from earlier work
S6K1 kinase = molecular target: S6K1 kinase; parameters: method as in PMID 24072592; details: cited from earlier work
PIM1 kinase = molecular target: PIM1 kinase; parameters: method as in PMID 23025350; details: cited from earlier work
human DYRK1A kinase = molecular target: T1, human DYRK1A kinase (Homo sapiens, UniProt Q13627); assay: Human DYRK1A kinase in vitro inhibition assay (Cerep, LANCE); format: biochemical
T1 construct: purchased Cerep (CRO that ran the assay) 2781 (781-dyrk1a)
Procedure: Evaluation of the effects of compounds on the activity of the human DYRK1a
[sequence]-amide (MBP) using a human recombinant enzyme and the
mixture is incubated for 30 min at room temperature. For control basal measurements,

human CDC2/CDK1 = molecular target: T2, human CDC2/CDK1 (Homo sapiens, UniProt P06493); assay: Human CDK1 kinase in vitro inhibition assay (Cerep, LANCE); format: biochemical
T2 construct: purchased Cerep (CRO that ran the assay) 2875 (781-cdc2); host or cells: insect cells
T2 sequence (P06493 whole entry): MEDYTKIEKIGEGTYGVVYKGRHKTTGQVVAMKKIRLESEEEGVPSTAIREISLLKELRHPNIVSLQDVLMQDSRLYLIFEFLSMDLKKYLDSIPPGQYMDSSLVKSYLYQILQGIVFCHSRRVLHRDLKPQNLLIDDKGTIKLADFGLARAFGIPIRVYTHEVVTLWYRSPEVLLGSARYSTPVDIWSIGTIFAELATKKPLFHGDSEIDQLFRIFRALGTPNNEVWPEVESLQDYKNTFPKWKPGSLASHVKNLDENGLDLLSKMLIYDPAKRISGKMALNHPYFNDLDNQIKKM
T2 sequence (P14635 whole entry partner): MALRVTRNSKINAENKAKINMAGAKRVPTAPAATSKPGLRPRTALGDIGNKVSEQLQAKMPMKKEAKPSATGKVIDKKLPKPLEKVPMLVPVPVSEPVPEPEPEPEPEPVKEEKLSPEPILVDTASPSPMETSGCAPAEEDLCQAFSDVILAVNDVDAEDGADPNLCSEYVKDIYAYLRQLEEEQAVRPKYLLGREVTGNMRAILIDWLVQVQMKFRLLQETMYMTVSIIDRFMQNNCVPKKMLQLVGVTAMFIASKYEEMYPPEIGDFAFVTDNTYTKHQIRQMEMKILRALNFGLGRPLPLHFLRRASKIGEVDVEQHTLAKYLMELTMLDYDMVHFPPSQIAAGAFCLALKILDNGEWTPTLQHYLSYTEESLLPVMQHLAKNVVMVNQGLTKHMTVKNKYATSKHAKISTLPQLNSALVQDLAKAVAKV
Text: All details for the CDC2/CDK1 in vitro assay can be consulted in the Cerep
Catalogue available online under references 2875 (781-cdc2):
http://www.cerep.fr/cerep/users/pages/catalog/Affiche_CondExp_Test.asp?test=2875
CDC2/CDK1 quantified by measuring the phosphorylation of
the substrate Ulight-[sequence]-amide (MBP) using a human
recombinant enzyme expressed in insect cells and the LANCE® detection method.
The test compound, reference compound or water (control) are mixed with the enzyme (2.28 ng) in a buffer containing 40 mM Hepes/Tris(pH 7.4), 0.8 mM EGTA/Tris, 8 mM MgCl2, 1.6 mM DTT and 0.008% Tween 20. Thereafter, the reaction is initiated by adding 100 nM of the
substrate Ulight-[sequence]-amide (MBP) and 10 µM ATP, and the
mixture is incubated for 15 min at room temperature. […] After 60 more min, the fluorescence transfer is
The IC50 values (concentration causing a half-maximal inhibition of control specific activity) and Hill coefficients (nH) were determined by non-linear regression analysis of the inhibition curves generated with mean replicate values using Hill equation curve fitting (Y = D + [(A – D)/(1 + (C/C50)nH)], where Y = specific activity, D = minimum specific activity, A = maximum specific activity, C = compound concentration, C50 = IC50, and nH = slope factor).

16 protein kinases = assay: Focused in vitro kinase screening across the panel of 16 protein kinases; format: biochemical, human; details: panel of 16 kinases
Text: From these kinases, we selected the 11 that were available for screening at Cerep (www.cerep.fr). The selection included members of three different kinase groups distantly related by sequence (all having less than 20% sequence identity with PIM1), namely, CAMK (PIM2, STK17A), CMGC (DYRK1A, CDK9, HIPK2, CK2, and CDC7) and AGC (AKT3, PRKCG, PRKCI, and PKA). To this list, we added also two kinases belonging to the TK group that have been identified as biomarkers of PARP drug sensitivity and shared ligands with PIM1, namely, ABL and ALK. […] In the end, a total of 16 protein kinases were selected for a focused in vitro screening of PARP inhibitors.
(§1) Rucaparib, veliparib and olaparib were purchased from Selleckchem. Kinase in vitro assays were perfomed at Cerep (www.cerep.fr) by measuring the phosphorylation of appropriate peptide substrates by human recombinant enzymes and using FRET as a detection method (a detailed description of each kinase assay is available in online supplementary data).

STAT3 phosphorilation = system: STAT3 phosphorilation; parameters: method as in PMID 22678161; details: at 5 µM; cited from earlier work
human PIM1 kinase = molecular target: T3, human PIM1 kinase (Homo sapiens, UniProt P11309); assay: Human Pim1 kinase in vitro inhibition assay (Cerep, LANCE/FRET); format: biochemical; details: human recombinant enzyme, 30 µM ATP
T3 construct: purchased Cerep (CRO that ran the assay) 2919 (745-P1); host or cells: insect cells
T3 sequence (P11309 whole entry): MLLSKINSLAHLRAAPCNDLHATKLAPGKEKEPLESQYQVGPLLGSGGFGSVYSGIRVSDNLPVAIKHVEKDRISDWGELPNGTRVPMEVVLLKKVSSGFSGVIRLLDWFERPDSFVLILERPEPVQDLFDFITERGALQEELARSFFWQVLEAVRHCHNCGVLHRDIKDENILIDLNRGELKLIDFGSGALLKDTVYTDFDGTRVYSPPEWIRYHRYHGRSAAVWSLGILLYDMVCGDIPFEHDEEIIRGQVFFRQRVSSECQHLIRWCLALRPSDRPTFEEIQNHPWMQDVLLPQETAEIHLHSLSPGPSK
Procedure: Human Pim1 and Pim2 kinase in vitro inhibition assays
Evaluation of the effects of compounds on the activity of the human Pim1 and Pim2 kinases were quantified by measuring the phosphorylation of the substrate Ulight-
CREBtide ([sequence]) using either Pim1 or Pim2 human recombinant enzymes expressed in insect cells and the LANCE® detection method 18,19.
The test compound, reference compound or water (control) are mixed with either Pim1 (4.08 ng) or Pim2 (6.36 ng) enzymes in a buffer containing 40 mM Hepes/Tris (pH 7.4), 0.8 mM EGTA/Tris, 8 mM MgCl2, 1.6 mM DTT and 0.008% Tween 20.
Thereafter, the reaction is initiated by adding 25 nM of the substrate Ulight-CREBtide
([sequence]) and ATP (30 µM for Pim1 and 3 µM for Pim2), and the mixture is incubated for 60 min at room temperature. […] After 60 more min, the fluorescence transfer is measured at λex=337 nm, λem=620 nm and λem=665 nm using a microplate reader (Envision, Perkin Elmer).

human CDK9 kinase = molecular target: T4, human CDK9 kinase (Homo sapiens, UniProt P50750); assay: Human CDK9 kinase in vitro inhibition assay (Cerep, LANCE); format: biochemical; details: human recombinant enzyme, 10 µM ATP
T4 construct: purchased Cerep (CRO that ran the assay) 2912 (781-cdk9); host or cells: Sf9 cells
T4 sequence (P50750 whole entry): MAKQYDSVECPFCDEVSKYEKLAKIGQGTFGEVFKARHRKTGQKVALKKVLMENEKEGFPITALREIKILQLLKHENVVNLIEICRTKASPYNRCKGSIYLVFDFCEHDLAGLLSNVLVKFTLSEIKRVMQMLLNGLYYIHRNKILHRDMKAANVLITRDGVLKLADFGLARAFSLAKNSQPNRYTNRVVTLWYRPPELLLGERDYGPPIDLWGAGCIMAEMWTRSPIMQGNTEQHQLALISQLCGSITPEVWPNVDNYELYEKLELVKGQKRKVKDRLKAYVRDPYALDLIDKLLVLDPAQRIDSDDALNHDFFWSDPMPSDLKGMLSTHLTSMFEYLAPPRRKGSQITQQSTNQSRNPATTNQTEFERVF
T4 sequence (O60563 whole entry partner): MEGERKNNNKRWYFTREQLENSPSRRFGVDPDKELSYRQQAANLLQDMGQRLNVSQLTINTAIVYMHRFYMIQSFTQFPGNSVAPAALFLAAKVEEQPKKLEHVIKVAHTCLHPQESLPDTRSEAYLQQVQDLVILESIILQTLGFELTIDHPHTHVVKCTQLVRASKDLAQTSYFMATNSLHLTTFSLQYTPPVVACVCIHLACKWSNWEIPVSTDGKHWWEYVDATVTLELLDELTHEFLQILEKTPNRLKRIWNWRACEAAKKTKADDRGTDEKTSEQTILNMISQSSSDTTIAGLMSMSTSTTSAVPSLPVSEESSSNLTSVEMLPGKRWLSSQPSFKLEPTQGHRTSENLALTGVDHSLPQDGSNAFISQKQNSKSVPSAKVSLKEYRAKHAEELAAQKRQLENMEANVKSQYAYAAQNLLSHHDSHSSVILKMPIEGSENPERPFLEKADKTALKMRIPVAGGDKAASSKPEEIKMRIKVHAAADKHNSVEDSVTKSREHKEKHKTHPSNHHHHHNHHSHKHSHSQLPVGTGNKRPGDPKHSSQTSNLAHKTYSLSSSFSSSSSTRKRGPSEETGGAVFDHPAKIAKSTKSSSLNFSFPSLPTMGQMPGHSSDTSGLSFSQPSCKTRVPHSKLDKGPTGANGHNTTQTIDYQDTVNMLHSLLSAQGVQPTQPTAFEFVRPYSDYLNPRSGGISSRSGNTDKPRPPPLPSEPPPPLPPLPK
Text: as §1
Human CDK9 kinase in vitro inhibition assay
All details for the CDK9 in vitro assay can be consulted in the Cerep Catalogue available online under references 2912 (781-cdk9): http://www.cerep.fr/cerep/users/pages/catalog/Affiche_CondExp_Test.asp?test=2912 Evaluation of the effects of compounds on the activity of the human CDK9 quantified by measuring the phosphorylation of the substrate Ulight- […]
mixture is incubated for 90 min at room temperature. […] After 60 more min, the fluorescence transfer is measured at λex=337 nm, λem=620 nm and λem=665 nm using a microplate reader (Envision, Perkin Elmer). The enzyme activity is determined by dividing the signal measured at λem=665 nm by that measured at λem=620 nm (ratio). The results are expressed as a percent inhibition of the control enzyme activity. The standard inhibitory reference compound is staurosporine, which is tested in each experiment at several concentrations to obtain an inhibition curve from which its IC50 value is calculated. […]

[1] = 50 mg single daily dose; cited from earlier work

O=C1CCCN1Cc1ccc2c(c1)[nH]c(=O)c1cccn12 [CHEMBL539474]
Ki (PARP-1): 0.698 µM

NC(=O)c1cccc2[nH]c(-c3ccc(O)cc3)nc12 [Nu1085]
IC50 (S6K1 kinase): 0.56 µM

CN(C)CC(=O)Nc1ccc2[nH]c(=O)c3ccccc3c2c1 [PJ34]
IC50 (PIM1 kinase): 3.7 µM

O=C(c1cc(Cc2n[nH]c(=O)c3ccccc23)ccc1F)N1CCN(C(=O)C2CC2)CC1 [olaparib]
inhibition of DYRK1A (in words) (human DYRK1A kinase): not inhibited
inhibition of CDK1 (in words) (human CDC2/CDK1): not inhibited
affinity for the 16 protein kinases tested (16 protein kinases): does not inhibit any; also recorded: no relevant affinities
effect on STAT3 phosphorilation (STAT3 phosphorilation): do not affect the phosphorilation state of STAT3

C[C@]1(c2nc3c(C(N)=O)cccc3[nH]2)CCCN1 [veliparib]
IC50 (human PIM1 kinase): 17 µM
inhibition of DYRK1A (in words) (human DYRK1A kinase): not inhibited
inhibition of CDK1 (in words) (human CDC2/CDK1): not inhibited
IC50 (human CDK9 kinase): 8.2 µM
effect on STAT3 phosphorilation (STAT3 phosphorilation): do not affect the phosphorilation state of STAT3
highest peak plasma concentration [1]: around 1 µM
